Patent US20080249132A1, “Piperidine Carboxyamide Derivate Suitable as Tachykinin Receptor Antagonist” (priority 2005, published 2008)

Target: T1, recombinant human NK1 receptors (Homo sapiens, UniProt P25103)
T1 construct: expressed in transfected cells; membrane preparation
Test: NK1 receptor filtration binding assay, displacement of [3H]-Substance P
Details: displacement of [3H]-substance P from recombinant human NK1 receptors expressed in CHO cell membranes; average of at least two determinations; read-out: pKi (negative logarithm of the inhibition constant Ki) (converted)
Procedure: NK1-receptor binding affinity has been determined in vitro in filtration binding assay by measuring the compounds' ability to displace [^3H]-Substance P (SP) from recombinant human NK1 receptors stably expressed in Chinese Hamster Ovary (CHO) cell membranes prepared by using a modification of the method described by Beattie D. T. et al. (Br. J. Pharmacol, 116:3149-3157, 1995).
Briefly, ligand binding was performed in 0.4 ml of 50 mM HEPES, pH 7.4, containing 3 mM MnCl2, 0.02% BSA, 0.5 nM [^3H]-Substance P (30-56 Ci/mmol Amersham), a final membrane protein concentration of 30-50 μg/ml, and the test compounds. The incubation proceeded at room temperature for 40 min and was stopped by filtration. Non-specific binding was determined using excess of substance P (1 μM) and represents about 6-10% of the total binding. IC50 values of each compound were determined by an 8-point 10×-dilution inhibition curve. pKi values were calculated using the KD of [^3H]-Substance P determined in a separate experiment.
The affinity of the compound of the invention for NK1 receptor was determined using the NK1 receptor binding affinity method measuring in vitro the compounds' ability to displace [3H]—substance P (SP) from recombinant human NK1 receptors expressed in Chinese Hamster Ovary (CHO) cell membranes. […]

T1 sequence (P25103 whole entry): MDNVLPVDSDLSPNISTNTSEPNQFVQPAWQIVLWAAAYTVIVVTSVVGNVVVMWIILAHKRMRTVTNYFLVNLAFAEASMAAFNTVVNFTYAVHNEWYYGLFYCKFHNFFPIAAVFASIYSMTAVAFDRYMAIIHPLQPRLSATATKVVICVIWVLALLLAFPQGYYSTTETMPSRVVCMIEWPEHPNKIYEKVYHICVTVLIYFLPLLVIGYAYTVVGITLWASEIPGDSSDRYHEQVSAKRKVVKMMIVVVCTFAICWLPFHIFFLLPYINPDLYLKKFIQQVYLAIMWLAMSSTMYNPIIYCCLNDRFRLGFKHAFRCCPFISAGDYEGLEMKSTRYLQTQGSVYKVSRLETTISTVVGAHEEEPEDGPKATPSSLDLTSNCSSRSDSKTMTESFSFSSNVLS

CC(=O)NCCN[C@H]1CCN(C(=O)N(C)[C@H](C)c2cc(C(F)(F)F)cc(C(F)(F)F)c2)[C@@H](c2ccc(F)cc2C)C1 [Example 1, (2R,4S)-4-{[2-(acetylamino)ethyl]amino}-N-{(1R)-1-(3,5-bis(trifluoromethyl)phenyl)ethyl}-2-(4-fluoro-2-methylphenyl)-N-methyl-1-piperidinecarboxamide]
Ki: 0.02 nM
